This note sets out measurements from patent publication US20230265091A1, “COMPOUNDS WHICH INHIBIT RNA POLYMERASE” (The Johns Hopkins University, priority 2020, published 2023).

Structures can show the parent of a compound that is named as a salt.

For this assay, the system named is RPA194 (RNA polymerase I, Pol I). Kind of assay: RPA194 destruction / Pol I inhibition, high-content imaging in A375 cells. The conditions noted are these: A375 cells treated for 4 hours, top concentration 10 μM; anti-RPA194 immunofluorescence; pIC50 >= 5.02 deemed a Pol I inhibitor. It is filed as cell-based. As for the experimental part:
Cell culture: A375 cells (CRL-1619, ATCC) were grown in DMEM (GTBCO) supplemented with […] fetal bovine serum (GIBCO) in 5% CO2 at 37° C.
Cell treatment and Imaging: 18 hours post-seeding in cell carrier black 384-well plates (PerkinElmer) at 15 000 cells/well, A375 cells were treated for 4 hours with a positive control or test compounds (9 serial semi-log dilutions, top concentration 10 μM). Upon treatment A375 cells were (i) fixed for 15 min at RT with 4% of paraformaldehyde, (ii) permeabilized for 20 min at RT with 0.1-0.5% of NP-40, (iii) incubated with primary antibodies at 4° C.: anti-RPA194 (1:1000-1:1250 dilution, sc-48385, Santa Cruz Biotechnology) and anti-gH2Ax (1:5000 dilution, 81299, Abcam or 1:4000, JBW302, Millipore) (iv) incubated for 1 h at RT with Hoechst (1:5000 dilution, H3570, ThermoFisher) and secondary antibodies: anti-mouse-AlexaFluor488 (1:2000 dilution, A11001, ThermoFisher) and anti-rabbit-AlexaFluor647 (1:2000 dilution, A21443, ThermoFisher) or goat anti-mouse AlexaFluor-594 (1:1000 dilution). Images were acquired on an Operetta CLS High-Content Analysis System (PerkinElmer) (40× objective; 9 fields/well) and processed using the Columbus Image Analysis System (PerkinElmer) or by using Molecular Devices ImageXpress Micro XLS High Content Imager and MetaXpress high-content acquisition and analysis software.
In the table below, (+) is associated with a pIC50 5.02 to 5.8; (++) with pIC50 5.8 to 6.3; and plus sing (+++) with a pIC50 above 6.3.
As for `O=C(NCC1CCCC(CO)N1)c1cccn2c(=O)c3cc4ccccc4cc3nc12` (centres unmarked) [Compound 101, N-((6-(hydroxymethyl)piperidin-2-yl)methyl)-12-oxo-12H-benzo[g]pyrido[2,1-b]quinazoline-4-carboxamide hydrochloride], the “Activity Range (pIC50)” value is recorded as “++ ((++) with pIC50 5.8 to 6.3)”.

As for `O=C(NCC1CCCN1)c1cccn2c(=O)c3cc4ccccc4cc3nc12` (centres unmarked) [Compound 102, 12-oxo-N-(pyrrolidin-2-ylmethyl)-12H-benzo[g]pyrido[2,1-b]quinazoline-4-carboxamide trifluoroacetate], the “Activity Range (pIC50)” value is recorded as “++ ((++) with pIC50 5.8 to 6.3)”.

For `CC(NC(=O)c1cccn2c(=O)c3cc4ccccc4cc3nc12)C1CCCCN1` (centres unmarked) [Compound 103, 12-oxo-N-(1-(piperidin-2-yl)ethyl)-12H-benzo[g]pyrido[2,1-b]quinazoline-4-carboxamide hydrochloride], the “Activity Range (pIC50)” value was “++ ((++) with pIC50 5.8 to 6.3)”.

Take `O=C(NCC1CCCCN1)c1cccn2c(=O)c3cc4ccccc4cc3nc12` (centres unmarked) [Compound 104, 12-oxo-N-(piperidin-2-ylmethyl)-12H-benzo[g]pyrido[2,1-b]quinazoline-4-carboxamide hydrochloride]: the “Activity Range (pIC50)” value is given as “++ ((++) with pIC50 5.8 to 6.3)”.

Consider `CCN1CCCCC1CNC(=O)c1cccn2c(=O)c3cc4ccccc4cc3nc12` (centres unmarked) [Compound 105, N-((1-ethylpiperidin-2-yl)methyl)-12-oxo-12H-benzo[g]pyrido[2,1-b]quinazoline-4-carboxamide hydrochloride], for which the “Activity Range (pIC50)” value was “++ ((++) with pIC50 5.8 to 6.3)”.

Turning to `CC(C)N1CCCCC1CNC(=O)c1cccn2c(=O)c3cc4ccccc4cc3nc12` (centres unmarked) [Compound 106, N-((1-isopropylpiperidin-2-yl)methyl)-12-oxo-12H-benzo[g]pyrido[2,1-b]quinazoline-4-carboxamide hydrochloride], the “Activity Range (pIC50)” value is given as “+ ((+) is associated with a pIC50 5.02 to 5.8)”.

For the molecule `CN1CCCC1CNC(=O)c1cccn2c(=O)c3cc4ccccc4cc3nc12` (centres unmarked) [Compound 107, N-((1-methylpyrrolidin-2-yl)methyl)-12-oxo-12H-benzo[g]pyrido[2,1-b]quinazoline-4-carboxamide hydrochloride], the “Activity Range (pIC50)” value was “+ ((+) is associated with a pIC50 5.02 to 5.8)”.

In the case of `CN1CCOCC1CNC(=O)c1cccn2c(=O)c3cc4ccccc4cc3nc12` (centres unmarked) [Compound 108, N-((4-methylmorpholin-3-yl)methyl)-12-oxo-12H-benzo[g]pyrido[2,1-b]quinazoline-4-carboxamide hydrochloride], the “Activity Range (pIC50)” value is “+ ((+) is associated with a pIC50 5.02 to 5.8)”.

`O=C(NCCN1CC[C@H](O)C1)c1cccn2c(=O)c3cc4ccccc4cc3nc12` [Compound 109, (S)-N-(2-(3-hydroxypyrrolidin-1-yl)ethyl)-12-oxo-12H-benzo[g]pyrido[2,1-b]quinazoline-4-carboxamide hydrochloride]: the “Activity Range (pIC50)” value is reported as “++ ((++) with pIC50 5.8 to 6.3)”.

For `O=C(NCCN1CC[C@@H](O)C1)c1cccn2c(=O)c3cc4ccccc4cc3nc12` [Compound 110, (R)-N-(2-(3-hydroxypyrrolidin-1-yl)ethyl)-12-oxo-12H-benzo[g]pyrido[2,1-b]quinazoline-4-carboxamide hydrochloride], the “Activity Range (pIC50)” value is listed as “+++ ((+++) with a pIC50 above 6.3)”.

As to `N#CC1CCN(CCNC(=O)c2cccn3c(=O)c4cc5ccccc5cc4nc23)CC1` [Compound 111, N-(2-(4-cyanopiperidine-1-yl)ethyl)-12-oxo-12H-benzo[g]pyrido[2,1-b]quinazoline-4-carboxamide hydrochloride], the “Activity Range (pIC50)” value was “+ ((+) is associated with a pIC50 5.02 to 5.8)”.

As to `O=C(NCCN1CCSCC1)c1cccn2c(=O)c3cc4ccccc4cc3nc12` [Compound 112, 12-oxo-N-(2-thiomorpholinoethyl)-12H-benzo[g]pyrido[2,1-b]quinazoline-4-carboxamide hydrochloride], the “Activity Range (pIC50)” value is on record as “+ ((+) is associated with a pIC50 5.02 to 5.8)”.

On to `O=C(NCCN1CCC(O)(O)CC1)c1cccn2c(=O)c3cc4ccccc4cc3nc12` [Compound 113, N-(2-(4,4-dihydroxypiperidin-1-yl)ethyl)-12-oxo-12H-benzo[g]pyrido[2,1-b]quinazoline-4-carboxamide hydrochloride], for which the “Activity Range (pIC50)” value is “++ ((++) with pIC50 5.8 to 6.3)”.

Take `CN(CCC#N)CCNC(=O)c1cccn2c(=O)c3cc4ccccc4cc3nc12` [Compound 114, N-(2-((2-cyanoethyl)(methyl)amino)ethyl)-12-oxo-12H-benzo[g]pyrido[2,1-b]quinazoline-4-carboxamide hydrochloride]: the “Activity Range (pIC50)” value is on record as “+ ((+) is associated with a pIC50 5.02 to 5.8)”.

Consider `COC(=O)N1CCN(CCNC(=O)c2cccn3c(=O)c4cc5ccccc5cc4nc23)CC1` [Compound 115, methyl 4-(2-(12-oxo-12H-benzo[g]pyrido[2,1-b]quinazoline-4-carboxamido)ethyl)piperazine-1-carboxylate hydrochloride], for which the “Activity Range (pIC50)” value is reported as “+ ((+) is associated with a pIC50 5.02 to 5.8)”.

`O=C(NCCN1CCC(F)CC1)c1cccn2c(=O)c3cc4ccccc4cc3nc12` [Compound 116, N-(2-(4-fluoropiperidin-1-yl)ethyl)-12-oxo-12H-benzo[g]pyrido[2,1-b]quinazoline-4 carboxamide hydrochloride]: the “Activity Range (pIC50)” value is listed as “++ ((++) with pIC50 5.8 to 6.3)”.

As for `O=C(NCCN1CCC(F)C1)c1cccn2c(=O)c3cc4ccccc4cc3nc12` (centres unmarked) [Compound 117, N-(2-(3-fluoropyrrolidin-1-yl)ethyl)-12-oxo-12H-benzo[g]pyrido[2,1-b]quinazoline-4-carboxamide hydrochloride], the “Activity Range (pIC50)” value is listed as “+ ((+) is associated with a pIC50 5.02 to 5.8)”.
